The results in this text go back to BindingDB's records for patent US12187713 (Betta Pharmaceuticals, 2025).

Structures are written as SMILES.

The assay addresses Programmed cell death 1 ligand/protein 1 (Homo sapiens, UniProt Q9NZQ7+Q15116). Nature of the assay: PD-1/PD-L1 Binding Assay (Alphascreen). As for the experimental part: The assays were conducted in a standard black 384-well polystyrene plate with a final volume of 20 μL. Inhibitors were first serially diluted in DMSO and then added to the plate wells before the addition of other reaction components. The final concentration of DMSO in the assay was […]. Add 100 nL/well of compound to the 384 reaction plate (6008280, PerkinElmer) with Echo and centrifuge at 1000 rpm for 1 minute. Add 5 μL/well 4×PD-L1 solutions to the 384 reaction plate, centrifuge at 1000 rpm for 1 minute, and add 5 μL/well 4×PD-1 solutions, centrifuge at 1000 rpm for 1 minute, and incubate at 25° C. for 15 minutes. The concentrations of the compounds were 300, 100, 33.33, 11.11, 3.70, 1.23, 0.41, 0.137, 0.046, 0.015, 0 nM, respectively. Add 10 μL/well 2× Anti-6×His AlphaLISA Acceptor beads and Streptavidin Donor beads solution (PerkinElmer-AL356F) to the above 384 reaction plate, centrifuge at 1000 rpm for 1 minute, and incubate at 25° C. in the dark for 120 minutes. Read the AlphaLISA signal value using the Envision Reader. IC50 determination was performed by fitting the curve of percent control activity versus the log of the inhibitor concentration using the GraphPad Prism 8.0 software.
For orientation: In Alpha technology, singlet oxygen from a donor bead excites a nearby acceptor bead.

Programmed cell death 1 ligand/protein 1, sequence (Q9NZQ7 whole entry): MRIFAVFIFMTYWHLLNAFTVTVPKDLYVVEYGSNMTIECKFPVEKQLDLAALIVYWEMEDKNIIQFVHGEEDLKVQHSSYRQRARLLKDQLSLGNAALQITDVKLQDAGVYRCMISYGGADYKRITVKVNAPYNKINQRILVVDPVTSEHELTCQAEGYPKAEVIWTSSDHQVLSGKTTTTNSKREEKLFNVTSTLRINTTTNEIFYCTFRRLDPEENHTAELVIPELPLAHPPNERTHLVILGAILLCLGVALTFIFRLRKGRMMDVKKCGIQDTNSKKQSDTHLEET
Programmed cell death 1 ligand/protein 1, sequence (Q15116 whole entry): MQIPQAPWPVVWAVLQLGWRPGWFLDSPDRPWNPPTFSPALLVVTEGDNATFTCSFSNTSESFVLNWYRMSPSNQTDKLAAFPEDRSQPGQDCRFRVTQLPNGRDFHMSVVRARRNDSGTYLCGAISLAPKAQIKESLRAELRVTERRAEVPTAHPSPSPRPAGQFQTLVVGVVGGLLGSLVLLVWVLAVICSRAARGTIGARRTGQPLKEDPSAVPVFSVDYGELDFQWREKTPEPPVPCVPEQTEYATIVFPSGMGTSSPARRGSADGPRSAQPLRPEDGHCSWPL

For `Cc1c(C2=NC3C=C(CN4CCC4(C)N)C(OC(F)F)=CC3O2)cccc1-c1cccc(-c2nc3cc(CN4CCC[C@H]4C(=O)O)c(OC(F)F)cc3o2)c1C` (some centres not stated) [US12187713, Example 40], the IC50 (usually the point on the concentration scale where inhibition reaches its midpoint) came out at 2.5 nM.

`CCCNCCCN(C)CC1=CC2N=C(c3cccc(-c4cccc(-c5nc6cc(CN7CCC[C@H]7C(=O)O)c(OC(F)F)cc6o5)c4C)c3C)OC2C=C1OC(F)F` (some centres not stated) [US12187713, Example 53] registered an IC50 of 2.5 nM.
